Results taken from patent US8785460B2, “Tricyclic compounds and use thereof” (Takeda Pharmaceutical Company Limited, priority 2008, dated 2014).

Columns and labels:
[1] = target: T1, human CRF1 receptor (Homo sapiens, UniProt P34998); assay: Measurement of CRF Binding Inhibitory Rate (receptor binding experiment with 125I-CRF); settings: human CRF1 receptor expressing CHO cellular membrane fraction, 50 pM 125I-CRF, room temperature 1.5 hr, 0.05 nM to 10 μM of compound; read-out: IC50 values (CRF binding inhibition)
T1 construct: expressed in transfected cells; host or cells: CHO cells (membrane fraction)
T1 sequence (P34998 24-415): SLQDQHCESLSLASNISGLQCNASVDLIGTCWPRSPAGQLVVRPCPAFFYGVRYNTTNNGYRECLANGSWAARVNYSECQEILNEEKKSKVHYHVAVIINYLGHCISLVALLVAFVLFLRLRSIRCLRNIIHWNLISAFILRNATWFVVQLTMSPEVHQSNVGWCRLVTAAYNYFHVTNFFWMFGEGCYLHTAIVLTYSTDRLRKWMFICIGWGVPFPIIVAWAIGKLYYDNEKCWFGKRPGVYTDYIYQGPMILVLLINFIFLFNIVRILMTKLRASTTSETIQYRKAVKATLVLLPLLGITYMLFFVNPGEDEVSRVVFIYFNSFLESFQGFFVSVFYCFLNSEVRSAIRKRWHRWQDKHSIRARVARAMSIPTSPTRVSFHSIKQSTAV

Work on `CCC(CC)c1ccc(Cl)c2nc3n(c12)CCCCN3c1ncc(S(C)(=O)=O)cc1C` [Example 341, 10-Chloro-7-(1-ethylpropyl)-1-[3-methyl-5-(methylsulfonyl)pyridin-2-yl]-2,3,4,5-tetrahydro-1H-[1,3]diazepino[1,2-a]benzimidazole] yielded a melting point of 137 to 139 °C and an IC50 [1] of less than 1000 nM.
`CCC(CC)c1ccc(Cl)c2nc3n(c12)CCCCN3c1ncc(C(C)=O)cc1C` [Example 342, 1-{6-[10-Chloro-7-(1-ethylpropyl)-2,3,4,5-tetrahydro-1H-[1,3]diazepino[1,2-a]benzimidazol-1-yl]-5-methylpyridin-3-yl}ethanone] gave a melting point of 142 °C and an IC50 [1] of less than 1000 nM.
`CCC(CC)c1ccc(Cl)c2nc3n(c12)CCCCN3c1c(C)noc1C` [Example 343, 10-Chloro-1-(3,5-dimethylisoxazol-4-yl)-7-(1-ethylpropyl)-2,3,4,5-tetrahydro-1H-[1,3]diazepino[1,2-a]benzimidazole] gave a melting point of 163 to 164 °C and an IC50 [1] of less than 1000 nM.
In the case of `COc1ccc(N2CCCn3c2nc2c(Cl)ccc(C(OCC(F)(F)F)C4CC4)c23)c(C)c1` (centres unmarked) [Example 353, 9-Chloro-6-[cyclopropyl(2,2,2-trifluoroethoxy)methyl]-1-(4-methoxy-2-methylphenyl)-1,2,3,4-tetrahydropyrimido[1,2-a]benzimidazole], the melting point is reported as 157 to 158 °C and the IC50 [1] is reported as less than 1000 nM.
With `COc1ccc(N2CCCn3c2nc2c(Cl)ccc(C(O)(C4CC4)C4CC4)c23)c(C)c1` [Example 354, [9-Chloro-1-(4-methoxy-2-methylphenyl)-1,2,3,4-tetrahydropyrimido[1,2-a]benzimidazol-6-yl](dicyclopropyl)methanol] the melting point was 181 to 182 °C and the IC50 [1] was less than 1000 nM.
In the case of `CCOc1ccc(N2CCCn3c2nc2c(Cl)ccc(C(OC(F)F)C(F)(F)F)c23)c(C)c1` (centres unmarked) [Example 356, 9-Chloro-6-[1-(difluoromethoxy)-2,2,2-trifluoroethyl]-1-(4-ethoxy-2-methylphenyl)-1,2,3,4-tetrahydropyrimido[1,2-a]benzimidazole], the melting point is reported as 179 to 182 °C and the IC50 [1] is reported as less than 1000 nM.
Compound `Cc1cc(OC(C)C)ccc1N1CCCn2c1nc1c(Cl)ccc(C(OC(F)F)C(F)(F)F)c12` (centres unmarked) [Example 357, 9-Chloro-6-[1-(difluoromethoxy)-2,2,2-trifluoroethyl]-1-[2-methyl-4-(propan-2-yloxy)phenyl]-1,2,3,4-tetrahydropyrimido[1,2-a]benzimidazole] has a melting point of 198 to 204 °C and an IC50 [1] of less than 1000 nM.
With `CCN(CC)c1cccc2nc3n(c12)CC(OC)CCN3c1ccc(Cl)cc1Cl` (centres unmarked) [Example 358, 1-(2,4-Dichlorophenyl)-N,N-diethyl-4-methoxy-2,3,4,5-tetrahydro-1H-[1,3]diazepino[1,2-a]benzimidazol-7-amine] the melting point was 120 to 122 °C and the IC50 [1] was less than 1000 nM.
Work on `CCN(CC)c1cccc2nc3n(c12)C=CCCN3c1ccc(Cl)cc1Cl` [Example 362, 1-(2,4-Dichlorophenyl)-N,N-diethyl-2,3-dihydro-1H-[1,3]diazepino[1,2-a]benzimidazol-7-amine] yielded a melting point of 105 to 106 °C and an IC50 [1] of less than 1000 nM.
Work on `CCN(CC)c1cccc2nc3n(c12)CC(N)CCN3c1ccc(Cl)cc1Cl` (centres unmarked) [Example 363, 1-(2,4-Dichlorophenyl)-N^7,N^7-diethyl-2,3,4,5-tetrahydro-1H-[1,3]diazepino[1,2-a]benzimidazole-4,7-diamine] yielded a melting point of 149 to 151 °C and an IC50 [1] of less than 1000 nM.
With `CCN(CC)c1ccc(F)c2nc3n(c12)CCCN3c1ccc(Cl)cc1Cl` [Example 365, 1-(2,4-Dichlorophenyl)-N,N-diethyl-9-fluoro-1,2,3,4-tetrahydropyrimido[1,2-a]benzimidazol-6-amine] the melting point was 170 to 172 °C and the IC50 [1] was less than 1000 nM.
In the case of `COc1ccc(C(O)(C2CC2)C2CC2)c2c1nc1n2CCCN1c1ccc(Cl)cc1Cl` [Example 369, Dicyclopropyl[1-(2,4-dichlorophenyl)-9-methoxy-1,2,3,4-tetrahydropyrimido[1,2-a]benzimidazol-6-yl]methanol], the melting point is reported as 219 to 220 °C and the IC50 [1] is reported as less than 1000 nM.
`CCC(NS(C)(=O)=O)c1ccc(Cl)c2nc3n(c12)CCCN3c1ccc(Cl)cc1Cl` (centres unmarked) [Example 373, N-{1-[9-Chloro-1-(2,4-dichlorophenyl)-1,2,3,4-tetrahydropyrimido[1,2-a]benzimidazol-6-yl]propyl}methanesulfonamide] gave a melting point of 125 to 126 °C and an IC50 [1] of less than 1000 nM.
In the case of `CCNC(=O)NC(CC)c1ccc(Cl)c2nc3n(c12)CCCN3c1ccc(Cl)cc1Cl` (centres unmarked) [Example 374, 1-{1-[9-Chloro-1-(2,4-dichlorophenyl)-1,2,3,4-tetrahydropyrimido[1,2-a]benzimidazol-6-yl]propyl}-3-ethylurea], the melting point is reported as 250 to 252 °C and the IC50 [1] is reported as less than 1000 nM.
`CCC(O)c1ccc(Cl)c2nc3n(c12)CCCN3c1c(Cl)cc(Cl)cc1Cl` (centres unmarked) [Example 391, 1-[9-Chloro-1-(2,4,6-trichlorophenyl)-1,2,3,4-tetrahydropyrimido[1,2-a]benzimidazol-6-yl]propan-1-ol] showed a melting point of 213 to 214 °C and an IC50 [1] of less than 1000 nM.
Compound `CCC(O)c1ccc(Cl)c2nc3n(c12)CCCN3c1c(Cl)cc(OC)cc1Cl` (centres unmarked) [Example 394, 1-[9-Chloro-1-(2,6-dichloro-4-methoxyphenyl)-1,2,3,4-tetrahydropyrimido[1,2-a]benzimidazol-6-yl]propan-1-ol] has a melting point of 206 to 208 °C and an IC50 [1] of less than 1000 nM.
`CCC(O)c1ccc(Cl)c2nc3n(c12)CCCN3c1c(Br)cc(OC)cc1Br` (centres unmarked) [Example 397, 1-[9-Chloro-1-(2,6-dibromo-4-methoxyphenyl)-1,2,3,4-tetrahydropyrimido[1,2-a]benzimidazol-6-yl]propan-1-ol] showed a melting point of 138 to 140 °C and an IC50 [1] of less than 1000 nM.
For `Cc1cc(C#N)ccc1N1CCCn2c1nc1c(Cl)ccc(C(OCC(F)(F)F)C3CC3)c12` (centres unmarked) [Example 402, 4-{9-Chloro-6-[cyclopropyl(2,2,2-trifluoroethoxy)methyl]-3,4-dihydropyrimido[1,2-a]benzimidazol-1(2H)-yl}-3-methylbenzonitrile], the melting point was 207 to 209 °C and the IC50 [1] was less than 1000 nM.
For `CCC(NC(=O)C(F)F)c1ccc(Cl)c2nc3n(c12)CCCN3c1c(Cl)cc(Cl)cc1Cl` (centres unmarked) [Example 409, N-{1-[9-Chloro-1-(2,4,6-trichlorophenyl)-1,2,3,4-tetrahydropyrimido[1,2-a]benzimidazol-6-yl]propyl}-2,2-difluoroacetamide], the melting point was 211 to 213 °C and the IC50 [1] was less than 1000 nM.
`CCC(NC(=O)OC)c1ccc(Cl)c2nc3n(c12)CCCN3c1c(Cl)cc(Cl)cc1Cl` (centres unmarked) [Example 410, Methyl {1-[9-chloro-1-(2,4,6-trichlorophenyl)-1,2,3,4-tetrahydropyrimido[1,2-a]benzimidazol-6-yl]propyl}carbamate] gave a melting point of 231 to 233 °C and an IC50 [1] of less than 1000 nM.
For `CS(=O)(=O)NC(c1ccc(Cl)c2nc3n(c12)CCCN3c1c(Cl)cc(Cl)cc1Cl)C(F)(F)F` (centres unmarked) [Example 416, N-{1-[9-Chloro-1-(2,4,6-trichlorophenyl)-1,2,3,4-tetrahydropyrimido[1,2-a]benzimidazol-6-yl]-2,2,2-trifluoroethyl}methanesulfonamide], the melting point was 290 to 291 °C and the IC50 [1] was less than 1000 nM.
Compound `Cc1cc(Cl)cc(Cl)c1N1CCn2c1nc1c(Cl)ccc(C(O)(C3CC3)C3CC3)c12` [Example 426, [8-Chloro-1-(2,4-dichloro-6-methylphenyl)-2,3-dihydro-1H-imidazo[1,2-a]benzimidazol-5-yl](dicyclopropyl)methanol] has a melting point of 193 to 196 °C and an IC50 [1] of less than 1000 nM.
In the case of `Cc1cc(Cl)cc(Cl)c1N1CCn2c1nc1cccc(C(O)(C3CC3)C3CC3)c12` [Example 428, Dicyclopropyl[1-(2,4-dichloro-6-methylphenyl)-2,3-dihydro-1H-imidazo[1,2-a]benzimidazol-5-yl]methanol], the melting point is reported as 243 to 246 °C and the IC50 [1] is reported as less than 1000 nM.
In the case of `CCC(OC(=O)C1CC1)c1ccc(Cl)c2nc3n(c12)CCCN3c1ccc(Cl)cc1Cl` (centres unmarked) [Example 431, 1-[9-Chloro-1-(2,4-dichlorophenyl)-1,2,3,4-tetrahydropyrimido[1,2-a]benzimidazol-6-yl]propyl cyclopropanecarboxylate], the melting point is reported as 159 to 161 °C and the IC50 [1] is reported as less than 1000 nM.
In the case of `CCC(OC(=O)COC)c1ccc(Cl)c2nc3n(c12)CCCN3c1ccc(Cl)cc1Cl` (centres unmarked) [Example 432, 1-[9-Chloro-1-(2,4-dichlorophenyl)-1,2,3,4-tetrahydropyrimido[1,2-a]benzimidazol-6-yl]propyl methoxyacetate], the melting point is reported as 156 to 158 °C and the IC50 [1] is reported as less than 1000 nM.
Compound `CCC(OC(=O)CS(C)(=O)=O)c1ccc(Cl)c2nc3n(c12)CCCN3c1ccc(Cl)cc1Cl` (centres unmarked) [Example 433, 1-[9-Chloro-1-(2,4-dichlorophenyl)-1,2,3,4-tetrahydropyrimido[1,2-a]benzimidazol-6-yl]propyl (methylsulfonyl) acetate] has a melting point of 187 to 189 °C and an IC50 [1] of less than 1000 nM.
In the case of `CCC(OC(C)=O)c1ccc(Cl)c2nc3n(c12)CCN3c1c(C)cc(Cl)cc1Cl` (centres unmarked) [Example 437, 1-[8-Chloro-1-(2,4-dichloro-6-methylphenyl)-2,3-dihydro-1H-imidazo[1,2-a]benzimidazol-5-yl]propyl acetate], the melting point is reported as 190 to 192 °C and the IC50 [1] is reported as less than 1000 nM.
`CCC(NC(C)=O)c1ccc(Cl)c2nc3n(c12)CCCN3c1ccc(Cl)cc1Cl` (centres unmarked) [Example 440, N-{1-[9-Chloro-1-(2,4-dichlorophenyl)-1,2,3,4-tetrahydropyrimido[1,2-a]benzimidazol-6-yl]propyl}acetamide] showed a melting point of 237 to 239 °C and an IC50 [1] of less than 1000 nM.
